Laboratory results from article PMC12706778, “Humanization of Drug Metabolism in the Plasmodium berghei Mouse Model for Antimalarial Drug Discovery” (ACS Infectious Diseases, 2025).
Values belong to the compound of their own block, whether it stands above or below them.

Experiments:
[1] = Intrinsic clearance with human hepatic microsomes; type: in vitro ADME; conditions: for metabolism with hepatic microsomes (in words): stated for hepatic microsomes from human, 8HUM and WT mice together
Method: (§1) Microsomes from 8HUM were prepared as described previously. Compounds were added at 0.5 μM (metabolic stability) or 5 μM (metabolite profiling) to microsomes in buffer (0.5 mg/mL protein in 50 mM potassium phosphate, pH 7.4), and reactions were initiated with the addition of excess NADPH (final concentration 0.8 mg/mL). Aliquots (50 μL) were taken immediately and at 3, 6, 9, 15, and 30 min, mixed with two volumes of acetonitrile containing internal standard (donepezil, 50 ng/mL), and kept on ice. After all samples were collected, 250 μL of 20% acetonitrile was added to each sample and samples were then centrifuged for 10 min at 3000g at ambient temperature. LC–MS/MS analysis was carried out immediately.
(§2) Microsomal incubation samples were analyzed on an Acquity UPLC system coupled to a Xevo TQS-Micro, operated using MassLynx software version 4.2 (Waters, Wilmslow, UK). […] The mass spectrometer was operated with electrospray ionization in positive mode, with a capillary voltage of 0.8 kV, a desolvation temperature of 500 °C (in vitro samples) or 600 °C (PK samples), a desolvation gas flow at 1000 L/h, a cone gas flow at 150 L/h, and a source temperature at 150 °C. Multiple reaction monitoring transitions, cone voltages, and collision energies were optimized for each compound using QuanOptimise software.
(§3) Raw LC–MS/MS data were exported to XLfit (IDBS, Woking, UK) for calculation of the exponential decay rate constant (k) from the ratio of the peak area of the test compound to the internal standard at each time point. Intrinsic clearance (CLint) was calculated by multiplying k by the incubation volume and […]. […] Lower and upper limits of quantitation were 0.011 and 0.1 mL/min/mg, respectively. Values were transferred to RStudio (Posit, Boston, MA, USA) for visualization using the ggplot2 package.

[2] = Oral pharmacokinetics in whole blood of WT mice; type: in vivo; conditions: female, mouse; for Tmax: WT, po; for blood plasma ratio: WT mice, blood and plasma samples from same animals at identical timepoints, read-out: B/P (blood-to-plasma ratio)
Method: (§4) Three female mice were used in each pharmacokinetic experiment. Dose levels and schedules were as described in the text. All compounds were administered as fine suspensions in a vehicle of 1% methylcellulose and 0.5% Tween80 in water at a dose volume of 5 mL/kg. Serial blood samples (10 μL) were taken from the tail vein at the time points shown, diluted into 9 volumes of Milli-Q water, and stored at −20 °C prior to bioanalysis. PK parameters were determined by noncompartmental analysis using the Phoenix WinNonlin version 8.3.1.5014 (Certara).
as §2
(§5) On the day of sample analysis, calibration standards (CSs) and quality controls (QCs) were prepared from separate compound aliquots. Compounds were dissolved in DMSO and spiked into diluted blank blood as a control matrix, prior to extraction with three volumes of acetonitrile containing the internal standard (donepezil at 5 ng/mL), in parallel with PK samples. Concentration of the drug in samples was determined by interpolation onto CS values using TargetLynx (Waters). Acceptance criteria of the bioanalytical method included a CS accuracy of ±20% of nominal (theoretical) concentration across the range of interest. […] QCs at low-, medium-, and high- concentration levels were injected throughout the analytical run, with an acceptance criterion of 66% of injected samples being within ±20% of nominal concentrations. […] Sample carryover was determined in a blank injection immediately following the injection of the top CS. Carryover was deemed accepted when the test compound response in the blank was <1% of that in the top calibration sample.

[3] = Oral pharmacokinetics in whole blood of 8HUM mice; type: in vivo, mouse; conditions: for Tmax / blood plasma ratio: female, mouse; for Tmax: 8HUM, po; for blood plasma ratio: blood and plasma samples from same animals at identical timepoints, read-out: B/P (blood-to-plasma ratio); for AUCinf higher in 8HUM than in WT mice: oral dose, 8HUM versus WT
Method: as §4, §2, §5

[4] = Intrinsic clearance with 8HUM mouse hepatic microsomes; type: in vitro ADME
Method: as §1
(§6) Microsomal incubation samples were analyzed on an Acquity UPLC system coupled to a Xevo TQS-Micro, operated using MassLynx software version 4.2 (Waters, Wilmslow, UK). […]
as §3, with “Values were transferred to RStudio (Posit, Boston, MA, USA) for visualization using the ggplot2 package.” left out

[5] = Intrinsic clearance with WT mouse hepatic microsomes; type: in vitro ADME; conditions: WT mouse microsomes versus human or 8HUM
Method: as §1, §6
as §3, with “Values were transferred to RStudio (Posit, Boston, MA, USA) for visualization using the ggplot2 package.” left out

Plasmodium berghei = experiment: Short course P. berghei infection efficacy in 8HUM mice; type: in vivo, Plasmodium berghei ANKA in 8HUM mice; conditions: 8HUM infected with 0.3 × 10^6 P. berghei infected erythrocytes; single dose 7 mg/kg 24 h after infection; untreated approximately 10% after 5 days; n = 3
Method: Donor mice (CD-1) were intraperitoneally administered a solution containing cryopreserved erythrocytes infected with P. berghei ANKA (200 μL at approximately 4% parasitemia). […] Piperaquine (Sigma, C7874) was administered at 7 mg/kg in aqueous vehicle containing 1% (w/v) methylcellulose and 0.5% (w/v) Tween 80. Peripheral blood samples were collected daily, and parasitemia was determined as described.

[6] = chloroquine and primaquine 5 mg/kg, quinine 20 mg/kg

Compound: OC(c1cc(C(F)(F)F)nc2c(C(F)(F)F)cccc12)C1CCCCN1 (centres unmarked) [Mefloquine, mefloquine]
Tmax ([2]; whole blood): 4.7 ± 1.2 h
blood plasma ratio ([2]; whole blood and plasma, oral): 1.44 ± 0.07
Tmax ([3]; whole blood): 7.3 ± 1.2 h
blood plasma ratio ([3]; whole blood and plasma, oral, 8HUM mice): 1.41 ± 0.16
metabolism with hepatic microsomes (in words) [1]: Very little metabolism

Compound: CCc1nc(N)nc(N)c1-c1ccc(Cl)cc1 [Pyrimethamine, pyrimethamine]
metabolism with hepatic microsomes (in words) [1]: Very little metabolism

Compound: CCN(CC)Cc1cc(Nc2ccnc3cc(Cl)ccc23)ccc1O [Amodiaquine, amodiaquine]
stability in 8HUM microsomes compared with human [4]: much more stable
metabolism by human liver microsomes (in words) [1]: rapidly metabolized

Compound: CCN(CC)CCCC(C)Nc1ccnc2cc(Cl)ccc12 (centres unmarked) [Chloroquine, chloroquine]
stability with WT microsomes compared with human or 8HUM microsomes [5]: less stable
Tmax ([2]; in vivo): 2 h
blood plasma ratio ([2]; in vivo): 3.03 ± 0.38
Tmax ([3]; in vivo): 3 ± 2.6 h
blood plasma ratio ([3]; in vivo, 8HUM mice): 3.88 ± 1.64
AUCinf higher in 8HUM than in WT mice [3, 6]: 2.8 fold

Compound: [H]/N=C(\N/C(=N/[H])Nc1ccc(Cl)cc1)NC(C)C [Proguanil, proguanil]
metabolism with hepatic microsomes (in words) [1]: Very little metabolism

Compound: COc1cc(NC(C)CCCN)c2ncccc2c1 (centres unmarked) [Primaquine, primaquine]
stability with WT microsomes compared with human or 8HUM microsomes [5]: less stable
Tmax ([2]; in vivo): 0.6 ± 0.2 h
blood plasma ratio ([2]; in vivo): 1.05 ± 0.19
C max ([3]; 8HUM mice, whole blood, PO, chloroquine and primaquine 5 mg/kg, quinine 20 mg/kg, n = 3): 534 ± 37 ng/mL
Tmax ([3]; in vivo): 0.8 ± 0.2 h
blood plasma ratio ([3]; in vivo, 8HUM mice): 1.01 ± 0.03
AUCinf higher in 8HUM than in WT mice [3, 6]: 22 fold

Compound: Clc1ccc2c(N3CCN(CCCN4CCN(c5ccnc6cc(Cl)ccc56)CC4)CC3)ccnc2c1 [piperaquine]
parasitemia after treatment (Plasmodium berghei): almost undetectable levels

Continued, values first:

metabolism by human liver microsomes (in words) [1]: rapidly metabolized
Compound: C[C@H]1[C@H](OC(=O)CCC(=O)O)O[C@@H]2O[C@@]3(C)CC[C@H]4[C@H](C)CC[C@@H]1[C@@]24OO3 [Artesunate, artesunate]

metabolism with hepatic microsomes (in words) [1]: Very little metabolism
Compound: O=C1C(O)=C([C@H]2CC[C@H](c3ccc(Cl)cc3)CC2)C(=O)c2ccccc21 [Atovaquone, atovaquone]

Tmax ([2]; whole blood): 0.3 ± 0.1 h
Tmax ([3]; whole blood): 10.7 ± 11.7 h
Compound: C=C[C@H]1C[N@@]2CC[C@H]1C[C@H]2[C@H](O)c1ccnc2ccc(OC)cc12 [Quinine, quinine]

metabolism by human liver microsomes (in words) [1]: rapidly metabolized
Compound: CO[C@H]1O[C@@H]2O[C@@]3(C)CC[C@H]4[C@H](C)CC[C@@H]([C@H]1C)[C@@]24OO3 [Artemether, artemether]

metabolism with hepatic microsomes (in words) [1]: Very little metabolism
Compound: C[C@H]1c2cccc(O)c2C(=O)C2=C(O)[C@]3(O)C(=O)C(C(N)=O)=C(O)[C@@H](N(C)C)[C@@H]3[C@@H](O)[C@@H]21 [Doxycycline, doxycycline]
